The nature of data set [1]: Pharmacokinetics and brain distribution study after a single oral administration.
Description: (6) Pharmacokinetics and Brain Distribution Study in Male Sprague Dawley Rats Following a Single Oral Administration
This study is designed to evaluate the pharmacokinetics and brain distribution of compounds disclosed herein in male Sprague Dawley Rat following a single Oral administration.
The animals were fasted overnight from 18:00 p.m. before the dosing day, and fed at 4 hr post-dose. All animals were free access to water during the study. Blood, CSF and brain were collected after each occasion of dosing at 0.5, 1, 2, and 8 hr. Blood samples (˜0.25 mL per time-point) were collected via jugular venous sinus puncture and placed in K2EDTA-containing tubes. Immediately following blood collection, the samples were inverted several times and held on wet ice before centrifugation. All the samples were centrifuged within 30 min of collection under refrigeration (set to maintain 4° C. for 5 min at 6000 rpm) to obtain plasma. The CSF samples (about 100 μL) were collected into tubes via puncture of the cisterna magna. The brain samples were rinsed with saline, drained with filter paper and removed with blood vessels, then weighted and recorded. 5-fold of the homogenate solvent (30% MeOH/70% 10 mM PBS) were used for the homogenization. All the samples were stored at −80° C., or lower until being analyzed with LC-MS/MS. Concentrations of the compounds disclosed herein in each matrix were used for PK analysis by non-compartmental method using WinNonlin.
Data set [2] deals with T1, ITK (Homo sapiens, UniProt Q08881).
T1 construct: purchased Carna 08-181
T1 sequence (Q08881 1-620): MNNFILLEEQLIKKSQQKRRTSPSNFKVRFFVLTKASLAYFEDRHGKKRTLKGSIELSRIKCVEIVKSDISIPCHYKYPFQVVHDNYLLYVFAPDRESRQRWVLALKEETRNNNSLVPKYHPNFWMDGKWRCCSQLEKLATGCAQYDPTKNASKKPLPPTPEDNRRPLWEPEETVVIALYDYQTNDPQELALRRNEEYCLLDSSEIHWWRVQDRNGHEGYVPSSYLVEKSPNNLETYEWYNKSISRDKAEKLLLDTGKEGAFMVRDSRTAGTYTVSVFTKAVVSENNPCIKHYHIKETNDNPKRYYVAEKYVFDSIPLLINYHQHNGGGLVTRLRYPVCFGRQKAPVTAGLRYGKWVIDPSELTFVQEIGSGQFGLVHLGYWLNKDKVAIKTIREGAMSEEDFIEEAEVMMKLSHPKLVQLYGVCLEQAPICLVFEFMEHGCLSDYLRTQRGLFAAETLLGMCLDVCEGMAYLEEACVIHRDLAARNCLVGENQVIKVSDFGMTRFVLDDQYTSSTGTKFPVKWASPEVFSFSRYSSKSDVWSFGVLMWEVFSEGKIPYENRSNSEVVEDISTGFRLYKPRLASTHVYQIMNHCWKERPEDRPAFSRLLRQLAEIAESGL
Kind of data set: ITK kinase inhibition test (HTRF). It is filed as biochemical. As for the experimental part:
(4) BTK C481S and ITK Kinase Inhibition Test
Reagents and materials: BTK C481S (Carna, catalog number: 08-547), ITK (Carna, catalog number: 08-181). […].
Kinase Assay: Stock solution of the test compounds were prepared. The final concentration of DMSO in the kinase detection system was not exceed 1%. All of the procedures were carried out on ice, and the total volume of the reaction is 10 μL. Compound (4 μL), substrate and ATP (4 μL), and kinase (2 μL) were added to the wells of a 384-well plate in sequence, shaked for 30 sec, and reacted at room temperature for a proper time. Then, the resection was stopped by adding the detection reagents. The reaction mixture was reacted at room temperature for 1 hr, and detected with Microplate Reader. […].

The target in data set [3] is T2, Phospho-BTK (Y223) in NIH/3T3 BTK WT cells (Homo sapiens, UniProt Q06187).
T2 construct: expressed in transfected cells; host or cells: NIH/3T3
T2 sequence (Q06187 whole entry): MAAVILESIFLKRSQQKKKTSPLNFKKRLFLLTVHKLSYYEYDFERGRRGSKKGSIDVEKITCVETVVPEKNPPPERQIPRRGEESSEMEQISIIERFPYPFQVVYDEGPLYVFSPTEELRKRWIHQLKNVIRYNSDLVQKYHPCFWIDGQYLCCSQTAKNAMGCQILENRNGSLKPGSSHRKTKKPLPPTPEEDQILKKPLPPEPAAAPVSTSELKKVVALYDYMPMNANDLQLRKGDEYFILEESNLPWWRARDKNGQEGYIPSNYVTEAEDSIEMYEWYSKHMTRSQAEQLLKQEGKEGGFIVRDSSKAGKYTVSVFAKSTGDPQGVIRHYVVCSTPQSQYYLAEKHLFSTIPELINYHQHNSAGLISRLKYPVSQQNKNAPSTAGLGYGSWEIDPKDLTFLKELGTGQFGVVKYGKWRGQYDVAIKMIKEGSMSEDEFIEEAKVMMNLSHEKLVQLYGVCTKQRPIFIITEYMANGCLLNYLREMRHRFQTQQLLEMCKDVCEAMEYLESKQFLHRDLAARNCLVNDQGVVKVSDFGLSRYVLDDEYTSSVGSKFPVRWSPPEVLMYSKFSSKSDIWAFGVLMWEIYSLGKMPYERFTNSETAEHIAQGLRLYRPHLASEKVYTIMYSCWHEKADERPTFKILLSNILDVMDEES
Nature of the data set: Phospho-BTK (Y223) assay, NIH/3T3 BTK WT cells. It is filed as cell-based. The note with it: phospho-BTK Y223, NIH/3T3 BTK WT cells; read-out: NIH/3T3 BTK-WT pBTK IC50. On the procedure: (§1) (5) Phospho-BTK (Y223) Assay The Adherent Cells Protocol: Day 1: • 1. […] The plate was incubated overnight at 37° C., 5% CO2. Day 2: • 1. 3-fold compound dilution was prepared, and dispensed 50 μL into 100 μL cell culture. 0.5% DMSO was used as positive control of the cell growth. • 2. The plate was incubated at 37° C., 5% CO2 for 0.5 h. • 3. 50 μL of 1 mM Na3VO4 was added, and incubated at 37° C., 5% CO2 for 2 h. • 4. During the incubation, the following reagents were prepared: 1× supplemented lysis buffer: 3 vol ddH2O+1 vol 4× Lysis buffer+100× Blocking reagent. p-BTK (Y223) cryptate-antibody and p-BTK (Y223) d2-antibody working solution: 1 volume of the stock solution of each antibody frozen aliquot (stored at)−20° was added into 19 volumes of the detection buffer (stored at) 4°. • 5. At the end of the incubation, the plate was flicked to remove the medium, then added 50 μL of 1× supplemented lysis buffer, and incubated at RT for 30 min, with 500 rpm shaking. • 6. The lysate was homogenized by pipetting up and down, and transferred 16 μL to a 384-well microplate. 1× supplemented lysis buffer was used as blank control. • 7. 4 μL of premixed antibody working solutions (cryptate Ab:d2 Ab=1:1) was added. The plate was covered with a plate sealer. • 8. Incubated at RT overnight. […] Data Analysis:
(§2) The IC50 value was calculated with GraphPad Prism 7.0.
(§3) The IC50 of the compounds for phosphorylating BTK Y223 was fit using the following formula.

Data set [4] addresses T3, BTK C481S (Homo sapiens, UniProt Q06187, C481S).
T3 construct: purchased Carna 08-547
Kind of data set: BTK C481S kinase inhibition test (HTRF). In kind it is biochemical. On the procedure: Kinase Assay: Stock solution of the test compounds were prepared. The final concentration of DMSO in the kinase detection system was not exceed 1%. All of the procedures were carried out on ice, and the total volume of the reaction is 10 μL. Compound (4 μL), substrate and ATP (4 μL), and kinase (2 μL) were added to the wells of a 384-well plate in sequence, shaked for 30 sec, and reacted at room temperature for a proper time. Then, the resection was stopped by adding the detection reagents. The reaction mixture was reacted at room temperature for 1 hr, and detected with Microplate Reader.
A general note: In TR-FRET formats the signal depends on donor and acceptor labels being close together.

For data set [5], the target named is T4, Phospho-BTK (Y223) in NIH/3T3 BTK C481S cells (Homo sapiens, UniProt Q06187, C481S).
T4 construct: expressed in transfected cells; host or cells: NIH/3T3
T4 sequence (Q06187 whole entry C481S): as the sequence (Q06187 whole entry) above, with C481S counted along it
Nature of the data set: Phospho-BTK (Y223) assay, NIH/3T3 BTK C481S cells. It is filed as cell-based. The note with it: phospho-BTK Y223, NIH/3T3 BTK C481S cells; read-out: NIH/3T3 BTK-C481S pBTK IC50. On the procedure: as §1, §2, §3

The target in data set [6] is T5, BTK (Homo sapiens, UniProt Q06187).
T5 construct: purchased Invitrogen PR5442A
T5 sequence (Q06187 whole entry): as the sequence (Q06187 whole entry) above
Nature of the data set: Kinase inhibition test (HTRF), BTK. It is filed as biochemical. The note with it: 1 nM BTK, 20 μM ATP. As for the experimental part:
(1) Kinase Inhibition Test
• 1) Compound dilution: The test compounds were dissolved in DMSO to make a 10 mM stock solution.

For data set [7] the following is noted: male, Sprague-Dawley, rat, in vivo.
The nature of data set [8]: in vivo. The note with it: male, Sprague-Dawley, rat.
[9] abbreviates: male SD rat, 10 mg/kg oral, CSF.
Where [10] appears, read: male SD rat, 10 mg/kg oral, brain.
Where [11] appears, read: male, Sprague Dawley, rat, CSF, po, 10 mg/kg.
The mark [12] stands for this setting: male, Sprague Dawley, rat, plasma, po, 10 mg/kg.
Setting [13] is: male SD rat, 10 mg/kg oral, plasma.
The mark [14] stands for this setting: male, Sprague Dawley, rat, brain, po, 10 mg/kg.

T3 sequence (Q06187 whole entry C481S): as the sequence (Q06187 whole entry) above, with C481S counted along it

The term AUC(0-t) denotes the area under the concentration-time curve up to a stated or last time point. Higher therefore signals high exposure. What is called AUC(0-inf) is total exposure, with the tail of the curve extrapolated. Lower therefore signals less exposure. As usually defined, the MRT inf is the average time that molecules of a dose stay in the body. On to `C=CC(=O)N1CCC[C@@H](n2nc(-c3ccc(Oc4ccccc4)cc3)c3c(N)ncnc32)C1` [Ibrutinib, reference compound], for which the “Cmax, CSF” value in data set [1] (setting [9]) amounted to 0.35 ng/mL. For the same compound, the “Cmax, Brain” value in data set [1] (setting [10]) is 25.4 ng/mL. Further, the exposure AUC(0-t) in data set [1] (setting [11]) was determined as 0.0875 ng·h/mL. In data set [1] (setting [12]), this compound came in with an AUC(0-inf) of 666 ng·h/mL, an exposure AUC(0-t) of 626 ng·h/mL and an MRT inf of 145 min.
A word on the Tmax: it is the time at which the peak concentration occurs. The term Cmax denotes the peak of the concentration-time curve. What is called half-life is the time needed for the level to fall by half in the phase considered. In data set [2], `C=CC(=O)N1CCC[C@@H](c2nc(-c3ccc(Oc4ccccc4)cc3)c3c(N)nccn23)C1` [Example 7, (R)-1-(3-(8-amino-1-(4-phenoxyphenyl)imidazo[1,5-a]pyrazin-3-yl)piperidin-1-yl)prop-2-en-1-one] yielded an IC50 of 21.9 nM. Also, the IC50 in data set [3] came to 7.36 nM. In addition, in data set [1] (setting [9]), the “Cmax, CSF” value is 0.478 ng/mL. The “Cmax, Brain” value in data set [1] (setting [10]) is reported as 18 ng/mL. Further, in data set [1] (setting [13]), the “Cl_pred, Plasma” value is on record as 586 and the “Vz_pred, Plasma” value was found to be 85.5 L/kg. Also, in data set [1] (setting [11]), the AUC(0-t) was determined as 0.119 ng·h/mL and the time to peak (Tmax) is 30 min. In data set [1] (setting [14]), the AUC(0-t) was found to be 16.4 ng·h/mL and the Tmax was 30 min. For the same compound, in data set [1] (setting [12]), the AUC(0-inf) came out at 285 ng·h/mL, the AUC(0-t) was found to be 275 ng·h/mL, the highest concentration (Cmax) worked out at 117 ng/mL and the mean residence time (MRT inf) is 122 min. For the same compound, in data set [1] (setting [12]), the Tmax is 30 min and the half-life was 101 min. Besides, in data set [4], the IC50 was found to be 2.46 nM. Further, in data set [5], the IC50 stood at 162 nM.
For `C=CC(=O)N1CCC[C@@H](c2nn(-c3ccc(Oc4ccccc4)cc3)c3c(N)ncnc23)C1` [Example 5, (R)-1-(3-(7-amino-1-(4-phenoxyphenyl)-1H-pyrazolo[4,3-d]pyrimidin-3-yl)piperidin-1-yl)prop-2-en-1-one], the IC50 was determined as 619 nM in data set [2], 5.48 nM in data set [3], 6.02 nM in data set [4] and 663 nM in data set [5].
In the same order, the values of `C=CC(=O)N1CCC[C@H](c2nn(-c3ccc(Oc4ccccc4)cc3)c3c(N)ncnc23)C1` [Example 6, (S)-1-(3-(7-amino-1-(4-phenoxyphenyl)-1H-pyrazolo[4,3-d]pyrimidin-3-yl)piperidin-1-yl)prop-2-en-1-one] are 4380 nM, 18.7 nM, 16.1 nM and greater than 1000 nM.
On to `C=CC(=O)N1CCC[C@@H](c2nc(-c3ccc(Oc4ccccc4)cc3)c3c(N)ncnn23)C1` [Example 8, (R)-1-(3-(4-amino-5-(4-phenoxyphenyl)imidazo[5,1-f][1,2,4]triazin-7-yl)piperidin-1-yl)prop-2-en-1-one], for which the IC50 in data set [6] was less than 1 nM; in data set [2] it was 172 nM; in data set [3], 4.86 nM; in data set [4], 3.85 nM; in data set [5], 291 nM. In data set [7], this compound gave an F of 16.0%. The AUC(0-t) was 255 ng·h/mL in data set [8] (iv, 0.5 mg/kg) and 820 ng·h/mL in data set [8] (po, 10 mg/kg). For the same compound, the Cmax in data set [8] (iv, 0.5 mg/kg) worked out at 1120 ng/mL; in data set [8] (po, 10 mg/kg), 348 ng/mL. Also, the Tmax in data set [8] (po, 10 mg/kg) amounted to 20 min.
On to `C=CC(=O)N1CCC[C@@H](c2cn(-c3ccc(Oc4ccccc4)cc3)c3c(N)ncnc23)C1` [Example 3, (S)-1-(3-(4-amino-5-(4-phenoxyphenyl)-5H-pyrrolo[3,2-d]pyrimidin-7-yl)piperidin-1-yl)prop-2-en-1-one], for which the IC50 in data set [2] turned out to be 139 nM; in data set [3] it was 6.62 nM; in data set [4] it was 10.7 nM; in data set [5], 502 nM.
